# Measurements: patent US20080274213A1, “Drug for Ameliorating Male Climacteric Disorders” (WAKUNAGA PHARMACEUTICAL CO., LTD., priority 2004, published 2008)
# Test system: restraint stress-loaded ddY male mice
# Test: Test on inhibition of reduction in blood testosterone concentration (restraint stress-loaded mice)
# Format: in vivo
# Settings: tested likewise, dose of the components not given
# Method: The Codonopsis lanceolata extract obtained in Example 1 was used to investigate inhibitory effect on reduction in blood testosterone concentration caused by aging and stress according to the following procedures: seven-month-old ddY male mice (10 mice per group) were orally given 1 g/kg of the test substance once a day over 2 weeks. On the last administration day, the mice were loaded with restraint stress after 1 hour of test substance administration. The restraint stress loading was performed by wrapping soft wire nets around the mouse bodies and allowing the mice to abstain from food and drink for 16 hours (17:00 to 9:00). Immediately after the termination of the loading, their blood testosterone concentrations were measured. A significant difference test used was the Student's t-test.
row,Compound,inhibitory effect on reduction in blood testosterone concentration (isolated components)
1,CC1OC(OC2C(OC(=O)[C@]34CCC(C)(C)C[C@@]3(C)C3=CCC5[C@@]6(C)CC[C@H](OC7OC(C(=O)O)C(O)C(O)C7O)C(C)(C)C6CC[C@@]5(C)[C@]3(C)C[C@H]4O)OCC(O)C2O)C(O)C(O)C1OC1OCC(O)C(OC2OCC(O)C(O)C2O)C1O (some centres unmarked) [lancemaside-A],the inhibitory effect was also observed
2,tangshenoside I,the inhibitory effect was also observed
